Source: ChEMBL document CHEMBL1201862, “PubChem BioAssay data set” (2004)
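Five concentrations, 48 hours, 96-well plates. GI50 is the concentration that inhibits growth by half.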 Activity calls are given as the source filed them. Cut-off read from the data, not from the text of the source: active = GI50 up to about 1.1 µM and inactive = higher.

Tests used:
Assay in all cases: growth of human tumour cells (NCI), 48 h
[1] = system: OVCAR-3
[2] = system: K562
[3] = system: HCC 2998
[4] = system: DU-145
[5] = system: COLO 205
[6] = system: NCI-H460
[7] = system: MDA-MB-435
[8] = system: CAKI-1
[9] = system: MDA-N
[10] = system: MDA-MB-231
[11] = system: SF-295
[12] = system: HCT-116
[13] = system: OVCAR-4
[14] = system: Hs-578T
[15] = system: RPMI-8226
[16] = system: HT-29
[17] = system: CCRF-CEM
[18] = system: KM12
[19] = system: U-251
[20] = system: SN12C

Compound: C=C1CCOC2(C(O)C(C)(O)CO)NC(=O)C1(O)NC2=O (stereo not given)
- GI50 [1]: > 100 µM (inactive)
- GI50 [2]: > 100 µM (inactive)
- GI50 [3]: > 100 µM (inactive)
- GI50 [4]: > 100 µM (inactive)
- GI50 [5]: > 100 µM (inactive)
- GI50 [6]: > 100 µM (inactive)
- GI50 [7]: > 100 µM (inactive)
- GI50 [8]: > 100 µM (inactive)
- GI50 [9]: > 100 µM (inactive)
- GI50 [10]: > 100 µM (inactive)
- GI50 [11]: > 100 µM (inactive)
- GI50 [12]: > 100 µM (inactive)
- GI50 [13]: > 100 µM (inactive)
- GI50 [14]: > 100 µM (inactive)
- GI50 [15]: > 100 µM (inactive)
- GI50 [16]: > 100 µM (inactive)
- GI50 [17]: > 100 µM (inactive)
- GI50 [18]: > 100 µM (inactive)
- GI50 [19]: > 100 µM (inactive)
- GI50 [20]: > 100 µM (inactive)

Compound: C#Cc1cc(Br)c(OC(=O)C(C)(C)C)c(-c2cc(C#C)cc(Br)c2OC(=O)C(C)(C)C)c1
- GI50 [1]: 80 µM (inactive)
- GI50 [2]: 35.8 µM (inactive)
- GI50 [3]: 24.4 µM (inactive)
- GI50 [4]: 62.4 µM (inactive)
- GI50 [5]: 31 µM (inactive)
- GI50 [6]: 42.5 µM (inactive)
- GI50 [7]: 45.8 µM (inactive)
- GI50 [8]: 61.8 µM (inactive)
- GI50 [9]: 31.8 µM (inactive)
- GI50 [10]: 35.1 µM (inactive)
- GI50 [11]: 30.5 µM (inactive)
- GI50 [12]: 21 µM (inactive)
- GI50 [13]: 73.1 µM (inactive)
- GI50 [14]: 53.6 µM (inactive)
- GI50 [15]: 12.5 µM (inactive)
- GI50 [16]: 22.1 µM (inactive)
- GI50 [17]: 10.3 µM (inactive)
- GI50 [18]: 37.9 µM (inactive)
- GI50 [19]: 45.1 µM (inactive)
- GI50 [20]: 53 µM (inactive)

Compound: Clc1ccc(NCc2nnc(CCCCCCCCc3nnc(CNc4ccc(Cl)cc4)o3)o2)cc1
- GI50 [1]: > 100 µM (inactive)
- GI50 [2]: > 100 µM (inactive)
- GI50 [3]: > 100 µM (inactive)
- GI50 [4]: > 100 µM (inactive)
- GI50 [5]: > 100 µM (inactive)
- GI50 [6]: > 100 µM (inactive)
- GI50 [7]: > 100 µM (inactive)
- GI50 [8]: > 100 µM (inactive)
- GI50 [9]: > 100 µM (inactive)
- GI50 [10]: > 100 µM (inactive)
- GI50 [11]: > 100 µM (inactive)
- GI50 [12]: > 100 µM (inactive)
- GI50 [13]: > 100 µM (inactive)
- GI50 [14]: > 100 µM (inactive)
- GI50 [15]: > 100 µM (inactive)
- GI50 [16]: > 100 µM (inactive)
- GI50 [17]: > 100 µM (inactive)
- GI50 [18]: > 100 µM (inactive)
- GI50 [19]: > 100 µM (inactive)
- GI50 [20]: > 100 µM (inactive)

Compound: O=[N+]([O-])c1ccc2c(c1)Sc1ccccc1N2CCCCCl
- GI50 [1]: > 100 µM (inactive)
- GI50 [2]: 70.6 µM (inactive)
- GI50 [3]: > 100 µM (inactive)
- GI50 [4]: > 100 µM (inactive)
- GI50 [5]: > 100 µM (inactive)
- GI50 [6]: > 100 µM (inactive)
- GI50 [7]: > 100 µM (inactive)
- GI50 [8]: > 100 µM (inactive)
- GI50 [9]: > 100 µM (inactive)
- GI50 [10]: > 100 µM (inactive)
- GI50 [11]: > 100 µM (inactive)
- GI50 [12]: > 100 µM (inactive)
- GI50 [13]: 3.86 µM (inactive)
- GI50 [14]: > 100 µM (inactive)
- GI50 [15]: > 100 µM (inactive)
- GI50 [16]: > 100 µM (inactive)
- GI50 [17]: > 100 µM (inactive)
- GI50 [18]: > 100 µM (inactive)
- GI50 [19]: > 100 µM (inactive)
- GI50 [20]: > 100 µM (inactive)

Compound: Fc1ccc(/N=C/C=C/Nc2ccc(F)cc2)cc1
- GI50 [1]: 16 µM (inactive)
- GI50 [2]: 0.278 µM (active)
- GI50 [3]: 3.05 µM (inactive)
- GI50 [4]: 13.5 µM (inactive)
- GI50 [5]: 1.55 µM (inactive)
- GI50 [6]: 6.19 µM (inactive)
- GI50 [7]: 5.3 µM (inactive)
- GI50 [8]: 12.7 µM (inactive)
- GI50 [9]: 2.75 µM (inactive)
- GI50 [10]: 15.8 µM (inactive)
- GI50 [11]: 8.28 µM (inactive)
- GI50 [12]: 3 µM (inactive)
- GI50 [13]: 15.3 µM (inactive)
- GI50 [14]: 19.9 µM (inactive)
- GI50 [15]: 12.4 µM (inactive)
- GI50 [16]: 5.35 µM (inactive)
- GI50 [17]: 4.67 µM (inactive)
- GI50 [18]: 3.31 µM (inactive)
- GI50 [19]: 7.41 µM (inactive)
- GI50 [20]: 14 µM (inactive)

Compound: C[C@@H]1C[C@@H](O)[C@]2(O)O[C@@H]3C[C@@]4(C=O)[C@@H](CC[C@@H]5[C@@H]4CC[C@]4(C)[C@@H](C6=CC(=O)OC6)CC[C@]54O)C[C@H]3O[C@@H]2O1 [CALACTIN]
- GI50 [1]: 0.00169 µM (active)
- GI50 [2]: 0.0179 µM (active)
- GI50 [3]: 0.161 µM (active)
- GI50 [4]: 0.0171 µM (active)
- GI50 [5]: 0.0221 µM (active)
- GI50 [6]: 0.00464 µM (active)
- GI50 [7]: 0.0441 µM (active)
- GI50 [8]: 0.01 µM (active)
- GI50 [9]: 0.0538 µM (active)
- GI50 [10]: 0.0153 µM (active)
- GI50 [11]: 0.0133 µM (active)
- GI50 [12]: 0.0102 µM (active)
- GI50 [13]: 0.0222 µM (active)
- GI50 [14]: 0.0202 µM (active)
- GI50 [15]: 0.0281 µM (active)
- GI50 [16]: 0.021 µM (active)
- GI50 [17]: 0.00371 µM (active)
- GI50 [18]: 0.0226 µM (active)
- GI50 [19]: 0.019 µM (active)
- GI50 [20]: 0.00301 µM (active)

Compound: CC1=C(CO)C2=C(C)C3(CC3)[C@@](C)(O)C(=O)C2=C1 [IROFULVEN]
- GI50 [1]: 0.26 µM (active)
- GI50 [2]: 3.37 µM (inactive)
- GI50 [3]: 0.153 µM (active)
- GI50 [4]: 0.0929 µM (active)
- GI50 [5]: 0.166 µM (active)
- GI50 [6]: 0.0467 µM (active)
- GI50 [7]: 1.47 µM (inactive)
- GI50 [8]: 0.265 µM (active)
- GI50 [9]: 1.04 µM (active)
- GI50 [10]: 0.303 µM (active)
- GI50 [11]: 0.302 µM (active)
- GI50 [12]: 0.21 µM (active)
- GI50 [13]: 0.237 µM (active)
- GI50 [14]: 0.29 µM (active)
- GI50 [15]: 34.1 µM (inactive)
- GI50 [16]: 0.234 µM (active)
- GI50 [17]: 1.82 µM (inactive)
- GI50 [18]: 0.697 µM (active)
- GI50 [19]: 0.286 µM (active)
- GI50 [20]: 0.409 µM (active)

Compound: O=C1C(O)=C(CCCCCCCCC2CCCCC2)C(=O)c2ccccc21 [MENOCTONE]
- GI50 [1]: 10.7 µM (inactive)
- GI50 [2]: 2.51 µM (inactive)
- GI50 [3]: 8.69 µM (inactive)
- GI50 [4]: 7.45 µM (inactive)
- GI50 [5]: 8.45 µM (inactive)
- GI50 [6]: 4.3 µM (inactive)
- GI50 [7]: 4.99 µM (inactive)
- GI50 [8]: 5.5 µM (inactive)
- GI50 [9]: 4.75 µM (inactive)
- GI50 [10]: 4.56 µM (inactive)
- GI50 [11]: 6.98 µM (inactive)
- GI50 [12]: 3.33 µM (inactive)
- GI50 [13]: 16.5 µM (inactive)
- GI50 [14]: 12.4 µM (inactive)
- GI50 [15]: 6.15 µM (inactive)
- GI50 [16]: 12 µM (inactive)
- GI50 [17]: 2.72 µM (inactive)
- GI50 [18]: 8.49 µM (inactive)
- GI50 [19]: 5.71 µM (inactive)
- GI50 [20]: 7.89 µM (inactive)
